Measured values from patent US6071707A, “Phosphotyrosine mimics and method for identifying and using same” (Boehringer Ingelheim Pharmaceuticals, Inc., priority 1997, dated 2000).

Test system: anti-phosphotyrosine antibody (MAb PY-20)
Assay: Method for identifying phosphotyrosine mimics: competitive binding to anti-phosphotyrosine antibody (ELISA)
Set-up: species or system mouse
Settings: ELISA criterion: 50% or greater inhibition of anti-phosphotyrosine binding 15 μg/ml; biotinylated peptide ECQ(pY)QPQP
From the text: The present invention also provides a convenient and sensitive method for identifying phosphotyrosine mimics by utilizing anti-phosphotyrosine antibodies to rapidly screen large numbers of non-phosphorylated test compounds. Specifically, this method comprises the steps of:
(a) contacting a non-phosphorylated test compound and a phosphotyrosine-containing substance with an anti-phosphotyrosine antibody; and
(b) detecting the ability of the non-phosphorylated test compound to inhibit the binding of the anti-phosphotyrosine antibody to the phosphotyrosine-containing substance.
A 96 well microtiter plate (Pierce #15126, Reacti-Bind Streptvidin coated polystyrene) was coated with 100 μl of biotinylated peptide ECQ(pY)QPQP (MW=1367.5) at a concentration of 15 nM in Tris Buffered Saline (TBST) (10 mM Tris.HCl, pH 7.5, 100 mM NaCl, 0.1% Tween 20) for 45 minutes at room temperature. The microtiter plate was washed 4 times with TBST. MAb PY-20 (Zymed #03-7799) was pre incubated for 45 minutes at a 2× concentration of 0.078 μg/ml ([…]) with a 2× concentration of non-phosphorylated test compounds in TBST. 100 μl of test compound/antibody solution was added in duplicate to each of the wells and incubated at room temperature. The microtiter plate was washed 4 times with TBST. […] Optical density was measured at 405 nm. […]

SMILES: O=C(O)c1ccccc1 [phenyl carboxylic acid]
- identification as phosphotyrosine mimic (inhibition of anti-phosphotyrosine antibody binding to a phosphotyrosine-containing substance): identified as a phosphotyrosine mimic
